Experimental data from patent publication US4837228A, “Antiinflammatory and antimicrobial compounds and compositions” (The University of Mississippi, priority 1982, dated 1989).
Values after ≈ are worked out from the molar mass of the structure shown. Read-outs that look alike come from different tables or passages of the source.

Tests used:
Type in all cases: cell-based
[1] = tested on: erythrocyte (heat-induced hemolysis); test: erythrocyte membrane stabilization assay (heat-induced erythrocyte hemolysis)
Summary of the method: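 In vitro anti-inflammatory screen measuring stabilization of erythrocytes against heat-induced hemolysis, using 40% or 20% RBC suspensions. Compounds dissolved in physiologic saline or suspended in 2% ethanol in saline, pH adjusted to 7.4.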

[2] = tested on: Saccharomyces cerevisiae; test: MIC, two-fold (broth) serial dilution, S. cerevisiae
Summary of the method: (§1)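 Qualitative: agar well diffusion. Quantitative: two-fold (broth) serial dilution → MIC. Inoculum = 1 loop-full, 1:10 dilution of 24-h broth culture in sterile water; fungi/M. smegmatis 48–72 h incubation. Controls: streptomycin sulfate (antibacterial), amphotericin B (antifungal).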

[3] = tested on: Mycobacterium smegmatis; test: MIC, two-fold (broth) serial dilution, M. smegmatis; conditions: Mycolicibacterium smegmatis, read-out: MIC
Summary of the method: as §1

Work on `CCCCCc1cc(O)c2c(c1)OC(C)(CCC=C(C)C)C=C2` (stereo not shown) [CBC (I), 2-methyl-2(4'methyl-pent-3'-enyl)-5-hydroxy-7-pentyl chromene] yielded an inhibition at 12.5 µM ([1]; Erythrocyte, Table 8, 1.25 × 10^-5 M) of 55%, an inhibition at 25 µM ([1]; Erythrocyte, Table 8, 2.5 × 10^-5 M, read-out: inhibition of heat-induced erythrocyte hemolysis) of 67% and an inhibition at 50 µM ([1]; Erythrocyte, Table 8, 5 × 10^-5 M) of 79%. It also gave an inhibition at 100 µM ([1]; Erythrocyte, Table 9 Test 2 (40% RBC), 1.0 × 10^-4 M, read-out: percent inhibition of heat-induced erythrocyte hemolysis) of 40%, an inhibition at 20 µM ([1]; Erythrocyte, Table 9 Test 2 (40% RBC), 2.0 × 10^-5 M, read-out: percent inhibition of heat-induced erythrocyte hemolysis) of 26% and an inhibition at 20 µM ([1]; Erythrocyte, Table 9 Test 3 (20% RBC), 2.0 × 10^-5 M, read-out: percent inhibition of heat-induced erythrocyte hemolysis) of 26%. For the same compound, the inhibition at 2 µM ([1]; Erythrocyte, Table 9 Test 3 (20% RBC), 2.0 × 10^-6 M, read-out: percent inhibition of heat-induced erythrocyte hemolysis) was 7%, the inhibition at 100 µM ([1]; Erythrocyte, read-out: inhibition of heat-induced erythrocyte hemolysis, Table 8, 1 × 10^-4 M) was 98% and the inhibition at 100 µM ([1]; Erythrocyte, read-out: percent inhibition of heat-induced erythrocyte hemolysis, Table 9 Test 3 (20% RBC), 1.0 × 10^-4 M) was 37%. For the same compound, the inhibition at 20 µM ([1]; Erythrocyte, 2×10^-5 M, read-out: inhibition of heat-induced red cell hemolysis) was 26%, the inhibition at 100 µM ([1]; Erythrocyte, 10^-4 M, read-out: inhibition of heat-induced red cell hemolysis) was 35% and the “percent inhibition of heat-induced erythrocyte hemolysis” value ([1]; Table 9 Test 3 (20% RBC), 1.0 × 10^-4 M, 100 µM, listed as Cannabichromene) was 33%. For the same compound, the “times more protective of red cell membranes than an equivalent amount of PBZ” value ([1]; actual activity, may have been) was 3 to 30 times, the MIC ([2]; 48 hr) was 25.0 µg/mL (≈ 79.5 µM) and the MIC ([2]; 72 hr) was 50.0 µg/mL (≈ 159 µM). For the same compound, the MIC ([2]; Saccharomyces cerevisiae, 48 h, read-out: MIC) was 25 µg/mL (≈ 79.5 µM), the MIC ([2]; Saccharomyces cerevisiae, 72 h, read-out: MIC) was 50 µg/mL (≈ 159 µM) and the MIC ([3]; 24 h) was 12.5 µg/mL (≈ 39.7 µM). For the same compound, the MIC ([3]; 48 h) was 25 µg/mL (≈ 79.5 µM).
